Source: patent US20210069151A1, “[…] PHARMACEUTICAL COMBINATION OF THE ACTIVE ENANTIOMER S-KETOROLAC TR[…] TRAMADOL CHLORHYDRATE” (priority 2018, published 2021)
Entries after “also recorded” stand apart in the source; their conditions may differ.

Legend:
[1] = test system: uric acid-induced gouty arthritis pain in the rat; assay: pain-induced functional impairment model in the rat (PIFIR), antinociceptive effects; assay type: in vivo, male Wistar rats; conditions: for Maximum efficacy (ABC: X ± E.E.): ABC of the FI % temporal curve over 4 h, at the dose that generates the maximum efficacy (S-ketorolac tromethamine 3.16 mg/kg, tramadol chlorhydrate 56.23 mg/kg); for Relative efficacy: compared to S-ketorolac tromethamine (= 1.0); for antinociceptive effects, dose dependence: single acute oral administration, evaluated for 4 hours, tramadol 5.6 to 56.2 mg/kg, S-ketorolac tromethamine 0.01 to 3.16 mg/kg
Text: In order to determine the antinociceptive effects, male Wistar rats weighing between 180 and 200 g were employed. These were handled in accordance with the Official Mexican Norm (NOM-062-ZOO-1999) and in accordance with the general principles of lab animal care (NIH publication #85-23, revised in 1985). The minimum number of test animals were used (6 animals per experimental point for antinociceptive effects, motor coordination, and gastrointestinal damage, and 10 animals per experimental point for adverse effects: lethal dose 50). The animals were kept in a room with alternate cycles of light/darkness. Twelve hours before the antinociceptive tests, the food was withdrawn, and they only had free access to water. All of these experiments were conducted during the light phase.
The analgesics were dissolved or suspended in carboxymethyl cellulose at 0.5% and administered orally in a volume of 4 ml/kg.
This methodology is commonly known as “pain-induced functional impairment model in the rat” (PIFIR). This methodology was used to determine and compare the antinociceptive effects of these analgesics.
The methodology of the PIFIR experimental procedure is briefly described below: The animals were anesthetized in an anesthesia chamber saturated with isoflurane vapors. The gouty arthritis was induced by applying an intra-articular injection (i.art.) with 0.05 ml of uric acid suspended in mineral oil (at 30%) in the right hind limb, exactly in the femur-tibia-patella joint.
A 1 ml glass syringe with a No. 22, 4 mm long needle was used for the i.art. injection. Immediately afterward, an electrode was fixed on each hind limb in the middle of the plantar calluses. After the rats recovered from the anesthesia, they were placed in a 30 cm diameter stainless steel rotating cylinder. The cylinder was rotated at 4 rpm, forcing the rats to walk for 2 minutes every half hour for a total of 6.5 hours (2.5 h to generate the gouty arthritis and 4 h to evaluate the antinociceptive effects of the analgesics). The variable measured was the time of contact of each one of the hind limbs of the rats in the cylinder.
When the electrode and the cylinder make contact, a circuit closes, and the relationship between the time of contact of the extremity to which the uric acid was administered as compared to the one to which uric acid was not administered was registered in a computer. The percentage functionality indexes (FI %) are calculated with these variables. Once the total dysfunction (FI=0%) was produced due to the effect of the uric acid, the corresponding doses of each analgesic were administered individually or in combination.
The medium and standard error of the evaluation of the antinociceptive effects are presented in all of the graphics as from time “0,” which is the moment at which the arthritis is completely developed in the rat and is the precise moment of the administration of tramadol chlorhydrate and S-ketorolac tromethamine.
With the administration of these doses, the complete doses-responses of S-ketorolac tromethamine and tramadol chlorhydrate were plotted separately in order to perform a comparative analysis for efficacy and potency. In the case of tramadol chlorhydrate, the curves were obtained through a single and acute 4-hour administration in doses with algorithmic increases (of 5.6 to 56.2 mg/kg), (FIG. 1). The S-ketorolac tromethamine temporal curves were obtained through acute administration evaluated for 4 hours in doses with algorithmic increases (from 0.01 to 3.16 mg/kg).
After this, 24 different combinations of S-ketorolac tromethamine and tramadol chlorhydrate were analyzed in order to detect the type of interaction and the most significant combinations due to the degree of efficacy or the degree of antinociceptive potency.

[2] = background statement, cited from earlier work
[3] = pharmacological / analgesic potency relative to comparators (no method given); assay type: in vivo

Structure (SMILES) | Maximum efficacy (ABC: X ± E.E.) ([1]; po) [au] | Maximum efficacy (ABC: X ± E.E.) ([1]; po, listed as tramadol chlorhydrate) [au] | efficacy relative to that exhibited by S-ketorolac tromethamine ([1]; PIFIR, po) [%] | Relative efficacy ([1]; PIFIR, po) | antinociceptive effects, dose dependence [1] | potency ratio of the S (−) enantiomer ([2]; comparator not clearly printed) | analgesic effect relative to the racemic form [2] | potency relative to AA ([3]; times more potent than AA) [times] | potency relative to morphine ([3]; times more potent than morphine) [times] | potency relative to rac-ketorolac ([3]; times more potent than rac-ketorolac) [times]
COc1cccc([C@@]2(O)CCCC[C@@H]2CN(C)C)c1.Cl (relative stereo) [Tramadol chlorhydrate, (1R,2R)-rel-2-[(dimethylamino)methyl]-1-(3-methoxyphenyl)cyclohexanol] | 216.7 ± 19.1 | 216.66 | 70 | 0.70 | doses-dependent antinociceptive effects; also recorded: antinociceptive effects that are dependent on the gouty arthritis-type pain dose |  |  |  |  | 
O=C(c1ccccc1)c1ccc2n1CC[C@@H]2C(=O)O [S-ketorolac tromethamine, 2-amino-2-hydroximethyl-1,3 propanediol (1:1) S-(−)-5-benzoyl-2,3-dihydro-1H-pyrrolizine-1-carboxylate] | 310.5 ± 13.5 |  |  | 1.0 | doses-dependent antinociceptive effects; also recorded: antinociceptive effects that are dependent on the gouty arthritis-type pain dose | approximately 60 times | almost double that of the racemic form | 1037 | 82 | 3.3
